# Laboratory results as given in patent publication US20250230149A1, “MGLUR5 MODULATING COMPOUNDS, COMPOSITIONS, AND METHODS OF USE” (Allyx Therapeutics, Inc., priority 2022, published 2025).
# “Also recorded” adds a separate entry of the source.
# Experiments:
# CYP2B6 = biological target: T1, CYP2B6 (Homo sapiens, UniProt P20813); experiment: CYP450 reaction phenotyping in Supersomes, CYP2B6; type: in vitro ADME
# T1 construct: purchased
# Method: In Vitro CYP450 Reaction Phenotyping Study in Supersomes™ Over-Expressing Human CYP Enzymes
# The CYPP450 enzymes involved in the Phase I metabolism of Compound 1 Form A were investigated in vitro. Compound 1 Form A was metabolized by CYP1A2, CYP2D6 and CYP3A4 and with T1/2 values of 64, 14, and 176 min, respectively, and CLint of 0.261, 0.984 and 0.0786 μL/min/pmol CYP, respectively. No evidence of Compound 1 metabolism by CYP2B6, CYP2C8, CYP2C9 and CYP2C19 was observed.
# [1] = biological target: pregnane X receptor (PXR) (Rattus norvegicus, UniProt Q9R1A7); experiment: PXR receptor activation, rat; type: in vitro ADME; conditions: at 30 μM
# Excerpt: The objective of this study was to determine the human and rat pregnane X receptor (PXR) and human and rat aryl hydrocarbon receptor (AhR) receptor activation potential of Compound 1 Form A. The activation of PXR is a marker for induction of CYP3A4/5 and […] and the activation of AhR is a marker for induction of CYP1A.
# APP/PS1 mice = experiment: SV2A PET imaging of synaptic density in APP/PS1 mouse model; type: in vivo; conditions: 12 months of age, one-month treatment, 3.75 mg/kg q12 oral
# Method: The objective of this study was to assess synaptic density of control and APP/PS1 mice before and after treatment with Compound 1, and to assess the reversibility of any observed effects following a drug washout period.
# Vehicle (95% polyethylene glycol (PEG) 400/5% solutol) or Compound 1 at 7.5 mg/kg/day (3.75 mg/kg q12) was given to control and APP/PS1 mice for at least 28 days by oral administration. A subset of mice stopped treatment after four weeks, then underwent a four-week washout period.
# To further maximize translational relevance, in other studies mice were aged to the point that synapse loss was detectable using SV2A PET. At 12 months of age, synapse density, as measured by hippocampal/brainstem [^18F]SDM-8 SUVR-1, is reduced in APP/PS1 mice relative to wild-type.
# dKI mice = experiment: Immunohistochemical staining of SV2A and PSD-95 in APPNLGF/MAPT (dKI) mouse model; type: in vivo; conditions: 3.75 mg/kg q12 oral, at least 28 days
# Method: The objective of this study was to assess synaptic density of control and Amyloid Precursor Protein carrying NL-G-F mutations/Microtubule-associated protein tau (APP^NLGF/MAPT) (dKI—double knock-in) mice before and after treatment with Compound 1. Vehicle (95% PEG-400/5% Solutol) or Compound 1 at 7.5 mg/kg/day (3.75 mg/kg q12) was given to control and dKI mice for at least 28 days by oral administration.
# Reduced synaptic density in dKI samples relative to controls was confirmed by immunohistochemical staining of pre- and post-synaptic markers (SV2A and PSD-95) in hippocampal and cortical sections.
# C1q = C1q production, synaptic localization and synaptic engulfment; parameters: species or system mice; conditions: mouse, in vivo
# Excerpt: Compound 1 (e.g., Form A) prevented Alzheimer's triggered aberrant synaptic signaling while preserving physiological Glu activation. Studies have been conducted to show oral Compound 1 effectively occupied brain mGluR5 sites visualized by [^18F]FPEB PET at doses 250-fold below adverse effect levels in rodent and non-human primate. […] Production of the microglial mediator, C1q, was not altered by Compound 1, but Alzheimer-gene-dependent C1q localization to synapses and synaptic engulfment were prevented. Thus, selective modulation of mGluR5 reversed neuronal gene expression changes to protect synapses from damage by microglial mediators.
# [2] = Phase I open-label single ascending dose study; type: in vivo, healthy male and female participants; conditions: single oral doses 10-200 mg
# Method: This was an open-label, single ascending doses (SAD) study in healthy male and female participants 50 to 80 years of age (inclusive) with no history of cognitive impairment to evaluate the safety of single oral doses of Compound 1.
# Six cohorts of 6 participants each received a single oral dose of Compound 1 in the fasted state at the following dose levels: 10, 40, 70, 100, 150, and 200 mg and then were followed for 7 days; the starting dose of 10 mg was <10% of the 140 mg human equivalent dose (HED) of the rat NOAEL in the GLP 28-day rat study of 15 mg/kg.
# Doses were administered in an inpatient setting where all participants were closely monitored prior to discharge on Day 3, with follow-up in-person visits occurring on Days 4 and 7 and a phone call to inquire about general health occurring on Day 5.
# Compound 1 administration was carefully monitored within and between cohorts to ensure patient safety and determination of whether to open the next dose cohort was made after all participants in a given cohort had completed the study and all available clinical and safety data were reviewed by the Investigator, Medical Monitor, DSMB, and IND Sponsor.
# Following study drug administration, vital signs were monitored every 1 hour for the first 8 hours and then every 3 hours until discharge on Day 3 and an ECG was performed at approximately 6, 24, and 48 hours after drug administration. In order to monitor for changes in consciousness, the Glasgow Coma Scale (GCS) was administered pre-dose and then every 2 hours for the first 8 hours and then every 3 hours until discharge on Day 3. In order to monitor for cognitive or psychiatric side effects, the MOCA, GDS, and NPIQ were administered prior to oral dose administration, again at approximately 6 hours post-dose (approximate peak concentration), and approximately 24 hours post-dose. Adverse events were monitored continuously. Blood was collected for safety laboratory studies prior to drug dose administration and on Days 2 and 3.
# T1 sequence (P20813 whole entry): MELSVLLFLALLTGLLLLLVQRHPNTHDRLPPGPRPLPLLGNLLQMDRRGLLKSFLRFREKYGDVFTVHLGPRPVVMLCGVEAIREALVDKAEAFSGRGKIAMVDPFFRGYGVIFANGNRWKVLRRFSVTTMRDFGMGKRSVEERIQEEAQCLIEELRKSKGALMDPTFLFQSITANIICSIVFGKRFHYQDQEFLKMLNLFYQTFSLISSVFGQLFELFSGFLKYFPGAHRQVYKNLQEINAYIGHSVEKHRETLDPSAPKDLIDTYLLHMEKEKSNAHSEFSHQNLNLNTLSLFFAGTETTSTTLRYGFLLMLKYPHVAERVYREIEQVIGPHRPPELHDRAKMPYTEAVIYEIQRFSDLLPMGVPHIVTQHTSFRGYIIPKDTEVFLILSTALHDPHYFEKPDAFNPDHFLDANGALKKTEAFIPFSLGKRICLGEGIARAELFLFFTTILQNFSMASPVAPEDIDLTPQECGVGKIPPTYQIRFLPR
# Chain of pregnane X receptor (PXR) (Q9R1A7 whole entry): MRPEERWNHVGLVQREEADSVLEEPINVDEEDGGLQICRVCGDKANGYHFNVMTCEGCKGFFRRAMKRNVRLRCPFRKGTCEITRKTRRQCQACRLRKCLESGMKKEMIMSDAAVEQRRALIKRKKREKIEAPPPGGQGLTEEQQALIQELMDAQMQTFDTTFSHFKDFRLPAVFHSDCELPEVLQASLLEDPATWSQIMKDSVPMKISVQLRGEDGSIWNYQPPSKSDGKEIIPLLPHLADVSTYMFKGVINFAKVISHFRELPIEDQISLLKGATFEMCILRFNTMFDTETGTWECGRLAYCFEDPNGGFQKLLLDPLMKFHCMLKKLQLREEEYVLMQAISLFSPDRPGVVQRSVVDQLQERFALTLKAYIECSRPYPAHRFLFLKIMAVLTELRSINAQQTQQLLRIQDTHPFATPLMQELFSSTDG
smiles,measurement,setting,value
"O=C1N[C@H](c2cncc(C#Cc3ccccc3)c2)[C@@H](c2ccccc2Cl)O1 [Compound 1, (4R,5R)-5-(2-chlorophenyl)-4-(5-(phenylethynyl)pyridin-3-yl)oxazolidin-2-one]",metabolism by CYP2B6,CYP2B6,No evidence
same,mean activation of PXR,[1],4.70 fold
same,"synaptic density, SV2A PET (hippocampal/brainstem [18F]SDM-8 SUVR-1)",APP/PS1 mice,fully recovered; also recorded: highly significant increase
same,"SV2A and PSD-95 staining in the cerebral cortex, relative to vehicle",dKI mice,significant increases
same,"SV2A staining in hippocampus, relative to vehicle",dKI mice,significant increases
same,Alzheimer-gene-dependent C1q localization to synapses and synaptic engulfment,C1q,prevented
same,production of the microglial mediator C1q,C1q,not altered
same,"clinically significant changes in consciousness (GCS), cognitive or psychiatric side effects (MOCA, GDS, NPIQ)",[2],no evidence
same,intensity of TEAEs,[2],mild or moderate
same,"deaths, SAEs, severe TEAEs",[2]; 36 participants,"no deaths, SAEs, or severe TEAEs"
same,number of TEAEs considered possibly related to treatment,[2]; 36 participants,8
same,tolerability,"[2]; fasted, healthy participants 50 to 80 years",well tolerated
